Several values for one entry are separate records, joined by “and”; a condition that tells them apart may be missing. Identical values can stand only once.
What was measured:
[1] = Stability of oligosaccharides in oral rehydration solution, before/after retort sterilization and 3 weeks after (HPAEC); format: physicochemical; conditions: for 6′-SL / Lactose / Sialic acid / % Theoretical 6′-SL: 6′-SL sample, pH 3.5; for % Theoretical 6′-SL: fortification 0.2 g/L
Method: A study was conducted to determine the relative stabilities of GOS, FOS, 2′-FL, 6′-SL, and LNnT in an oral rehydration solution. A master batch of product was prepared (shown in Table 1), the pH adjusted to approx. 4.25, and subsequently divided into five sub-batches.
Oligosaccharide ingredients were added to each of the sub-batches in amounts shown Table 2, and the pH of each sub-batch was subsequently adjusted to 3.5 with citric acid. The solutions were filled into 1 L plastic bottles, capped and retorted with a cook temperature of 217° F. for 25 minutes. Duplicate samples were collected immediately prior to sterilization and within 24 h after sterilization. Prior to sample analysis, the unsterile samples were stored at refrigerated temperature (˜40° F.) and the sterilized samples were held ambient temperature.
Samples were analyzed by HPAEC using a Dionex ICS3000 Ion Chromatography System (Thermo Scientific, Inc., Sunnyvale, Calif.) equipped with a pulsed amperometric detector comprised of a AgCl reference electrode, gold working electrode, and CarboPac PA1 guard (4×50 mm) and analytical columns (4×250 mm). Mobile phases were degassed and pressurized with 3 to 5 psi helium, and oligosaccharides eluted from the columns using various gradients detailed in Tables 3-5 at a flow rate of 1.0 mL/min. The column and detector were held at 20±2° C. Oligosaccharide identification and concentration were determined from quadratic fit (not forced through the origin) standard curves. […]
2′-FL fortification was calculated to be 0.2 g/L. Testing samples were reconstituted at 20 mL to 100 ml, with water, and then filtered using a 0.2 μm PES membrane syringe filter.
LNnT fortification was calculated to be 0.256 g/L. Testing samples were reconstituted at 20 mL to 100 ml, with water, and then filtered using a 0.2 μm PES membrane syringe filter.
6′-SL fortification was calculated to be 0.2 g/L. Testing samples were reconstituted at 20 mL to 100 mL with water, and then filtered using a 0.2 μm PES membrane syringe filter.

[2] = Stability of 2′-FL, LNnT and 6′-SL in an ORC over time (0 D to 14 weeks); format: physicochemical; conditions: for % Remaining * (6′-SL): vs target fortification
Method: Another study was performed to determine the stability of 2′-FL, LNnT, and 6′-SL in an ORC over time (e.g., 1 week, 3 weeks, 6 weeks, and 14 weeks).
Sample Preparation: A master batch with a pH of 4.25 is sub-divided. The oligosaccharides are added to the respective ORC in an amount of 0.2 g/L for 2′-FL and 6′-SL, LNnT was fortified in an amount of 0.256 g/L. The pH was then adjusted from 4.25 to 3.5 by addition of citric acid. Prior to sterilization, samples are collected to evaluate oligosaccharide levels. The formulas were then delivered into 1 L bottles and subjected to heat sterilization and allowed to cool to room temperature.
The data on day 0 was collected in duplicate for samples prior to sterilization (unsterile) and after sterilization (sterile), thereafter the data was collected only on the sterilized samples. […] The slight fluctuation in lactose and lactulose levels are likely due to method variability.
The data on day 0 was collected in duplicate for samples prior to sterilization (unsterile) and after sterilization (sterile), thereafter the data was collected only on the sterilized samples.
The data on day 0 was collected in duplicate for samples prior to sterilization (unsterile) and after sterilization (sterile), thereafter the data was collected only on the sterilized samples. […] At 14 weeks, the concentration was 2.3% of the target fortification amount.

[3] = 3-week after sterilization, average
[4] = 3-week after sterilization, samples 1, 2
[5] = sterile (after retort 217° F. 25 min), samples 1, 2
[6] = sterile (after retort), average
[7] = 6′-SL ORC pH 3.5, 0 D, sterile, average
[8] = 6′-SL ORC pH 3.5, 0 D, sterile, samples 1, 2
[9] = 6′-SL ORC pH 3.5, 0 D, unsterile, average
[10] = 6′-SL ORC pH 3.5, 0 D, unsterile, samples 1, 2
[11] = 6′-SL ORC pH 3.5, 3 WK, sterile, average
[12] = 6′-SL ORC pH 3.5, 3 WK, sterile, samples 1, 2
[13] = 6′-SL ORC pH 3.5, 6 WK, sterile, average
[14] = 6′-SL ORC pH 3.5, 6 WK, sterile, samples 1, 2
[15] = 6′-SL ORC pH 3.5, 14 WK, sterile, average
[16] = 6′-SL ORC pH 3.5, 14 WK, sterile, samples 1, 2

CC(=O)N[C@H]1[C@H]([C@H](O)[C@H](O)CO)O[C@@](OC[C@H]2O[C@@H](O[C@H]3[C@H](O)[C@@H](O)[C@H](O)O[C@@H]3CO)[C@H](O)[C@@H](O)[C@H]2O)(C(=O)O)C[C@@H]1O [6′-SL, 6′-sialyllactose]
6′-SL [1, 3]: 10.5 mg/L | Lactose [1, 3]: 153 mg/L | Sialic acid [1, 3]: 82.9 mg/L | % Theoretical 6′-SL [1, 3]: 5.27% | 6′-SL [1, 4]: 10.5 mg/L and 10.6 mg/L | Lactose [1, 4]: 152.2 mg/L and 154 mg/L | Sialic acid [1, 4]: 82.89 mg/L and 82.96 mg/L | % Theoretical 6′-SL [1, 4]: 5.249% and 5.3% | 6′-SL [1, 5]: 10.39 mg/L and 11.0 mg/L | Lactose [1, 5]: 149.4 mg/L | Sialic acid [1, 5]: 83.46 mg/L and 83.79 mg/L | 6′-SL [1, 6]: 10.7 mg/L | Lactose [1, 6]: 149 mg/L | Sialic acid [1, 6]: 83.6 mg/L | 6′-SL ([1]; unsterile, average): 173 mg/L | Lactose ([1]; unsterile, average): 24.6 mg/L | Sialic acid ([1]; unsterile, average): 4.95 mg/L | 6′-SL ([1]; unsterile, samples 1, 2): 170.8 mg/L and 174.5 mg/L | Lactose ([1]; unsterile, samples 1, 2): 24.22 mg/L and 24.90 mg/L | Sialic acid ([1]; unsterile, samples 1, 2): 5.055 mg/L and 4.842 mg/L | Further loss 3-weeks after sterilization, relative to sterilized sample (in words) ([1]; oral rehydration solution pH 3.5, 3-weeks after sterilization): No additional loss | Loss of oligosaccharide during sterilization (in words) ([1]; oral rehydration solution pH 3.5, retort 217° F. 25 min): Significant loss | 6′-SL [2, 7]: 10.7 mg/L | Lactose [2, 7]: 149 mg/L | Sialic acid [2, 7]: 83.6 mg/L | % Remaining * (6′-SL) [2, 7]: 5.35% | 6′-SL [2, 8]: 10.39 mg/L and 11 mg/L | Lactose [2, 8]: 149.4 mg/L | Sialic acid [2, 8]: 83.46 mg/L and 83.79 mg/L | % Remaining * (6′-SL) [2, 8]: 5.195% and 5.502% | 6′-SL [2, 9]: 173 mg/L | Lactose [2, 9]: 24.6 mg/L | Sialic acid [2, 9]: 4.95 mg/L | % Remaining * (6′-SL) [2, 9]: 86.3% | 6′-SL [2, 10]: 170.8 mg/L and 174.5 mg/L | Lactose [2, 10]: 24.22 mg/L and 24.9 mg/L | Sialic acid [2, 10]: 5.055 mg/L and 4.842 mg/L | % Remaining * (6′-SL) [2, 10]: 85.42% and 87.24% | 6′-SL [2, 11]: 10.5 mg/L | % Remaining ** (6′-SL) [2, 11]: 5.27% | Lactose [2, 11]: 153 mg/L | Sialic acid [2, 11]: 82.9 mg/L | 6′-SL [2, 12]: 10.5 mg/L and 10.6 mg/L | % Remaining ** (6′-SL) [2, 12]: 5.249% and 5.3% | Lactose [2, 12]: 152.2 mg/L and 154.0 mg/L | Sialic acid [2, 12]: 82.89 mg/L and 82.96 mg/L | 6′-SL [2, 13]: 10.5 mg/L | % Remaining ** (6′-SL) [2, 13]: 5.26% | Lactose [2, 13]: 172 mg/L | Sialic acid [2, 13]: 98 mg/L | 6′-SL [2, 14]: 10.47 mg/L and 10.59 mg/L | % Remaining ** (6′-SL) [2, 14]: 5.234% and 5.295% | Lactose [2, 14]: 170.5 mg/L and 174.4 mg/L | Sialic acid [2, 14]: 98.77 mg/L and 97.2 mg/L | 6′-SL [2, 15]: 4.6 mg/L | % Remaining ** (6′-SL) [2, 15]: 2.31% | Lactose [2, 15]: 152 mg/L | Sialic acid [2, 15]: 91.7 mg/L | 6′-SL [2, 16]: 4.66 mg/L and 4.57 mg/L | % Remaining ** (6′-SL) [2, 16]: 2.330% and 2.285% | Lactose [2, 16]: 149.5 mg/L and 155.1 mg/L | Sialic acid [2, 16]: 91.10 mg/L and 92.22 mg/L | Concentration as % of the target fortification amount ([2]; 6′-SL ORC pH 3.5, at 14 weeks): 2.3% | Discoloration relative to the other test compositions ([2]; ORC pH 3.5, heat sterilized): Slight discoloration | Change of oligosaccharide level over the course of the study (in words) ([2]; ORC pH 3.5, heat sterilized, 0 D to 14 weeks): significant decrease
